Values joined by “and” are separate entries in the source; they are usually repeats but may differ in a detail not shown here. Equal values may be shown once.
Tests used:
[1] = target: HDAC11 (Homo sapiens, UniProt Q96DB2); assay: HDAC11 protease-coupled fluorescence (AMC) inhibition assay; format: biochemical; details: hr enzyme; read-out: IC50 against HDAC11
Protocol: (§1) The new hydroxamates 2 and 6 were screened and profiled via a protease-coupled assay in which the quantification of HDAC enzyme activity is based on the formation of a free fluorescent group, the 7-amino-4-methyl coumarin (AMC).[42] […] After deacetylation by HDACs, the de(trifluoro)acetylated AMC–peptides were sensitive toward lysine peptidase and free fluorogenic AMC was generated and quantified.[42]
(§2) Individual IC50 values for each HDAC isozyme were measured with the homogeneous fluorescence release HDAC assay.[42]

[2] = test system: L. donovani axenic amastigotes; assay: Resazurin reduction assay, L. donovani axenic amastigotes; format: cell-based; details: Leishmania donovani, read-out: percentage of inhibition, L. donovani axenic amastigotes
[3] = test system: L. amazonensis promastigotes; assay: Resazurin reduction assay, L. amazonensis promastigotes; format: cell-based; details: Leishmania amazonensis, read-out: percentage of inhibition, L. amazonensis promastigotes
[4] = target: HDAC3 (Homo sapiens, UniProt O15379); assay: HDAC3 protease-coupled fluorescence (AMC) inhibition assay; format: biochemical; details: hr enzyme, 10-dose, 3-fold dilution from 50 μM (3: from 300 μM); read-out: IC50 against HDAC3
Excerpt: as §1
(§3) To gain insights into its inhibition profile for human HDACs, we tested 3 against hrHDACs 1–6 and 8 following the above procedure (Table 1).
as §2

[5] = target: T1, HDAC8 (Homo sapiens, UniProt Q9BY41); assay: HDAC8 protease-coupled fluorescence (AMC) inhibition assay; format: biochemical; details: hr enzyme, substrate RHK(Ac)K(Ac)AMC; read-out: IC50 against HDAC8
T1 sequence (Q9BY41 1-377): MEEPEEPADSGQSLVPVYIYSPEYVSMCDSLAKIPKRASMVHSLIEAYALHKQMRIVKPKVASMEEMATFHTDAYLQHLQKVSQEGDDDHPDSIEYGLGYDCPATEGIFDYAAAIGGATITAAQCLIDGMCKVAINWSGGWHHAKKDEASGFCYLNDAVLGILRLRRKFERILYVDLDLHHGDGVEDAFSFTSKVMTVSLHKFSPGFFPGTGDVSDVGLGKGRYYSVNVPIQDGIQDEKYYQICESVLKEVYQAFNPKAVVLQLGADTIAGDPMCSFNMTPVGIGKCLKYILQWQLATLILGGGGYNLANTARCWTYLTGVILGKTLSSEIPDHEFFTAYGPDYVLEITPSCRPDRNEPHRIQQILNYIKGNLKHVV
Excerpt: as §1, §3, §2

[6] = target: HDAC2 (Homo sapiens, UniProt Q92769); assay: HDAC2 protease-coupled fluorescence (AMC) inhibition assay; format: biochemical; details: hr enzyme, 10-dose, 3-fold dilution from 50 μM (3: from 300 μM); read-out: IC50 against HDAC2
Excerpt: as §1, §3, §2

[7] = test system: L. donovani promastigotes; assay: Resazurin reduction assay, L. donovani promastigotes; format: cell-based; details: Leishmania donovani, read-out: percentage of inhibition, L. donovani promastigotes
[8] = test system: newly transformed schistosomula (NTS); assay: Phenotypic screening on newly transformed schistosomula (NTS); format: cell-based, Schistosoma mansoni; details: for IC50: Schistosoma mansoni, 72 h, read-out: IC50, viability of NTS
[9] = target: HDAC7 (Homo sapiens, UniProt Q8WUI4); assay: HDAC7 protease-coupled fluorescence (AMC) inhibition assay; format: biochemical; details: hr enzyme, class IIa substrate; read-out: IC50 against HDAC7
Protocol: as §1, §2

[10] = target: HDAC9 (Homo sapiens, UniProt Q9UKV0); assay: HDAC9 protease-coupled fluorescence (AMC) inhibition assay; format: biochemical; details: hr enzyme, class IIa substrate; read-out: IC50 against HDAC9
Protocol: as §1, §2

[11] = test system: T. cruzi amastigotes and trypomastigotes; assay: T. cruzi infection assay in L929 cells (beta-galactosidase Tulahuen strain); format: cell-based, Trypanosoma cruzi; details: infected L929 cells, 96 h; for EC50, growth of T. cruzi amastigotes and trypomastigotes: mean ± SD
[12] = target: HDAC1 (Homo sapiens, UniProt Q13547); assay: HDAC1 protease-coupled fluorescence (AMC) inhibition assay; format: biochemical; details: hr enzyme, 10-dose, 3-fold dilution from 50 μM (3: from 300 μM); read-out: IC50 against HDAC1
Excerpt: as §1, §3, §2

[13] = target: HDAC10 (Homo sapiens, UniProt Q969S8); assay: HDAC10 protease-coupled fluorescence (AMC) inhibition assay; format: biochemical; details: hr enzyme; read-out: IC50 against HDAC10
Protocol: as §1, §2

[14] = Trypanosoma cruzi, read-out: percentage of T. cruzi growth inhibition
[15] = Trypanosoma cruzi, toxic = L929 death, read-out: percentage of T. cruzi growth inhibition

Chain of HDAC7 (Q8WUI4 whole entry): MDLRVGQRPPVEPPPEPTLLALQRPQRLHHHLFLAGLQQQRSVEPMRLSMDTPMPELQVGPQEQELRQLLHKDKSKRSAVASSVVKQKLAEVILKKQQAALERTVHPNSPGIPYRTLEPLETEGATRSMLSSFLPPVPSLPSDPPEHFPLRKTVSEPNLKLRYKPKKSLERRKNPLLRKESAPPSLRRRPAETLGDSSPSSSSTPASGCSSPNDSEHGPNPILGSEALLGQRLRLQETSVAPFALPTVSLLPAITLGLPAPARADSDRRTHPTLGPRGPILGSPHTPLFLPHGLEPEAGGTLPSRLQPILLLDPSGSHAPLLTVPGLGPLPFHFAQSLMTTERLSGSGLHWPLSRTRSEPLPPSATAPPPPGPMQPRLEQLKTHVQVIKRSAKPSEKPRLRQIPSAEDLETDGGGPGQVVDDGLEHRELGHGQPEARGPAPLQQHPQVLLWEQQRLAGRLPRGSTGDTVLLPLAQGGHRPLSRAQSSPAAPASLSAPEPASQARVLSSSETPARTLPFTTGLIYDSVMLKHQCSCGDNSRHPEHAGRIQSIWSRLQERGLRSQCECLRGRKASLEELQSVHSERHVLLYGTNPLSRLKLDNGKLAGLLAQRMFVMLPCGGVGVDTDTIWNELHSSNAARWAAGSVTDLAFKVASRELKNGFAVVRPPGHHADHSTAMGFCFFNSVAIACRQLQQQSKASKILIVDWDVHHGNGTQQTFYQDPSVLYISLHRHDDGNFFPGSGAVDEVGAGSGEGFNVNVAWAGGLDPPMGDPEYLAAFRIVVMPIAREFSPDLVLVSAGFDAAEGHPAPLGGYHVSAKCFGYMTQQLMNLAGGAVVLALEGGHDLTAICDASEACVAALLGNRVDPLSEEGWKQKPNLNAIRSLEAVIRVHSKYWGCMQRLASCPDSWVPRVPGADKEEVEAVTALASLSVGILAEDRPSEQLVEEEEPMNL
Chain of HDAC2 (Q92769 whole entry): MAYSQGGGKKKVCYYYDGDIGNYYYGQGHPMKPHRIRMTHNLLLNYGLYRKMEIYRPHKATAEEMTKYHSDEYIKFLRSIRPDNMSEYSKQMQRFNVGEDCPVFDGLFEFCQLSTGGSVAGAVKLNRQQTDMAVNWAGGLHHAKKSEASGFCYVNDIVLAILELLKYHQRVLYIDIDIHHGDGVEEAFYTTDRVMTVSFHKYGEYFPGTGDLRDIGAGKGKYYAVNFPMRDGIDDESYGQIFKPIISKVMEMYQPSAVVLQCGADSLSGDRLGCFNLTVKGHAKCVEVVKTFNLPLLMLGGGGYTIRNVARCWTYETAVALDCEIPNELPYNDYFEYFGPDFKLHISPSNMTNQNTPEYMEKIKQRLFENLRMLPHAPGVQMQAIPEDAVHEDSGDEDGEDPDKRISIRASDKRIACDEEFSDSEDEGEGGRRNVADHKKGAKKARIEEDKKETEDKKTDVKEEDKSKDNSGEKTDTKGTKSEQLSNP
Chain of HDAC9 (Q9UKV0 whole entry): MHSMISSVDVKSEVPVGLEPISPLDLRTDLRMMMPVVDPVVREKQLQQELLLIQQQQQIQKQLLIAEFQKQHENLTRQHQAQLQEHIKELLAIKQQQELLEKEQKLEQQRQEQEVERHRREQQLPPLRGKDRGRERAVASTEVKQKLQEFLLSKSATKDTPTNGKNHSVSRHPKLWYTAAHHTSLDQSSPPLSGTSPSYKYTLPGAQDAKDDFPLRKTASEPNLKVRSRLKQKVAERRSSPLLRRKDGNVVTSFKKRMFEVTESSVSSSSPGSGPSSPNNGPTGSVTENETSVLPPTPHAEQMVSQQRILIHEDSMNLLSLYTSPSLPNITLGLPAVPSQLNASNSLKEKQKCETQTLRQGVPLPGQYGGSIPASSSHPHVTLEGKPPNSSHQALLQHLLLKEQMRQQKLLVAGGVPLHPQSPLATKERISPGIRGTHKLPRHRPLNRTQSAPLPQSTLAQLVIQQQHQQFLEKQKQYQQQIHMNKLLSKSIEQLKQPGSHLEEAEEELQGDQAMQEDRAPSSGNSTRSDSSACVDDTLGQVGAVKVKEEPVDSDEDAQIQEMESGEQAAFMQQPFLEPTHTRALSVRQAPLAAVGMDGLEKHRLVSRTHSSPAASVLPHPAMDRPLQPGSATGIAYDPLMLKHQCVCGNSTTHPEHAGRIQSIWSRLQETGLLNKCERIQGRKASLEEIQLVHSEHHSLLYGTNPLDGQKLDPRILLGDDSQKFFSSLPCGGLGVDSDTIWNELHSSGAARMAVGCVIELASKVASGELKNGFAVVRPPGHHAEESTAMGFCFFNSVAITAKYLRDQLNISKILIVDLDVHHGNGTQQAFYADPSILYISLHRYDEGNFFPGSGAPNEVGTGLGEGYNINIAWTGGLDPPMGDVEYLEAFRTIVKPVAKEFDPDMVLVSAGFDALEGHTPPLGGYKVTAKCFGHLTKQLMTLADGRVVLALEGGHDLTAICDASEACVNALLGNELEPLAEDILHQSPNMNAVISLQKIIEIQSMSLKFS
Chain of HDAC11 (Q96DB2 whole entry): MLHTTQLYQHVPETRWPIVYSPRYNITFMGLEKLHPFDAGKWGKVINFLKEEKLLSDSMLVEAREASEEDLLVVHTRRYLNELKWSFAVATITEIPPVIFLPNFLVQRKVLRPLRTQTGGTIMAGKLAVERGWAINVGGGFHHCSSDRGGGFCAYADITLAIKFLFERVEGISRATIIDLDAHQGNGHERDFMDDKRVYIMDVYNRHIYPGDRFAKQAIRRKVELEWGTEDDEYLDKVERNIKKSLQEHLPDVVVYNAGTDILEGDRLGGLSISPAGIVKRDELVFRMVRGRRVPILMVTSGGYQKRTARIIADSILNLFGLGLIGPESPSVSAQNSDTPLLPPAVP
Chain of HDAC10 (Q969S8 whole entry): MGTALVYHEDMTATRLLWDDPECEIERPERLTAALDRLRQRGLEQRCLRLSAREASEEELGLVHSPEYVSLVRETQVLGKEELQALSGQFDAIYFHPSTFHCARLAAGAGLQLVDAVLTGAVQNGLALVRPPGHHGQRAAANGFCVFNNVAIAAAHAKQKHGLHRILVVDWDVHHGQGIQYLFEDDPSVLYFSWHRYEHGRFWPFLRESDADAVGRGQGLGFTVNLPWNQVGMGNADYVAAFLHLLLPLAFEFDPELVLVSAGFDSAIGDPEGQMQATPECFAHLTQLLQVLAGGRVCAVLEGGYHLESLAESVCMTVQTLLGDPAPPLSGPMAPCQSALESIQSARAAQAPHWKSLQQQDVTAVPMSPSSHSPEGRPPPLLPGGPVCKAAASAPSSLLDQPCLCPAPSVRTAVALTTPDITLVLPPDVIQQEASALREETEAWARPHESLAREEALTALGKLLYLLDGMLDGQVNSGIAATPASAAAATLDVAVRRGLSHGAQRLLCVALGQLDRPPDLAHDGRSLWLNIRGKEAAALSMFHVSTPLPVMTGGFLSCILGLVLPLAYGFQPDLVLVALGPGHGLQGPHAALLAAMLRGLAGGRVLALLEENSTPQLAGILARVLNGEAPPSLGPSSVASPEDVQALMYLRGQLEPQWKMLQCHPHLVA
Chain of HDAC1 (Q13547 whole entry): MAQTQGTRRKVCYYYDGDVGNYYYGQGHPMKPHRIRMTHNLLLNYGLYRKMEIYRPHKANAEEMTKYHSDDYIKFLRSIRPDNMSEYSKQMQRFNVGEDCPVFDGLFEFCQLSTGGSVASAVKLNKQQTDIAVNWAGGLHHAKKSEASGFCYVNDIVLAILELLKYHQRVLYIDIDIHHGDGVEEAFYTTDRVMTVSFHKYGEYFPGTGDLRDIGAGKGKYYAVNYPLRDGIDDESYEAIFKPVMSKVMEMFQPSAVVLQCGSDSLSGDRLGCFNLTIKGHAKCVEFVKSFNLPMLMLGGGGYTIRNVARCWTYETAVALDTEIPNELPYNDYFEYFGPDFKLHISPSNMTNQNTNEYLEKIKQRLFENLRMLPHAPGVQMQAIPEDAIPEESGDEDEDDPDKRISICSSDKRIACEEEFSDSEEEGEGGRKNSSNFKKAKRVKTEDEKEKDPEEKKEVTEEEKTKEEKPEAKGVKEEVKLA
Chain of HDAC3 (O15379 whole entry): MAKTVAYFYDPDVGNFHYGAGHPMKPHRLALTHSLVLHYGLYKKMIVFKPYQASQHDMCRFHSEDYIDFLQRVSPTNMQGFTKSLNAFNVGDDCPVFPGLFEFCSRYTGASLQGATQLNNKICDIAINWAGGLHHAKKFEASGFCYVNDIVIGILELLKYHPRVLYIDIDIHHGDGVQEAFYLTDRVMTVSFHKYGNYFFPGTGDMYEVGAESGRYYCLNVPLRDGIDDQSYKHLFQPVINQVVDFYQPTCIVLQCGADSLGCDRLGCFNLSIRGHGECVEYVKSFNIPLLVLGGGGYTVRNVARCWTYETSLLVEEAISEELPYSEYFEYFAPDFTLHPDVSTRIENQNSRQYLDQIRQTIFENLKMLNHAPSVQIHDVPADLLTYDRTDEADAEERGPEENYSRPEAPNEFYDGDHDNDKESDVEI
Chain of HDAC3 (Q9Y618 395-489 partner limits assumed): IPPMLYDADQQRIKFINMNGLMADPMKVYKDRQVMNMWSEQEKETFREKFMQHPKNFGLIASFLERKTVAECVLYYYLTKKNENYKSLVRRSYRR

Row | Compound | IC50 [1] [µM] | inhibition at 0.8 µM [2] [%] | inhibition at 4 µM [2] [%] | inhibition at 20 µM [2] [%] | inhibition at 4 µM [3] [%] | inhibition at 20 µM [3] [%] | IC50 [4] [µM] | IC50 [5] [µM] | IC50 [6] [µM] | inhibition at 0.8 µM [7] [%] | inhibition at 4 µM [7] [%] | inhibition at 20 µM [7] [%] | percentage of NTS activity, 72 h ([8]; 10 μM) [%] | percentage of NTS activity, 72 h ([8]; 20 μM) | IC50 [8] [µM] | IC50 [9] [µM] | IC50 [10] [µM] | percentage of T. cruzi growth inhibition ([11]; 40 μM, toxic = L929 death) | percentage of T. cruzi growth inhibition ([11]; 80 μM, toxic = L929 death) | percentage of T. cruzi growth inhibition ([11]; 160 μM, toxic = L929 death) | also measured
1 | CN(C)Cc1ccc(S(=O)(=O)n2ccc3cc(/C=C/C(=O)NO)ccc32)cc1 [Compound 6, 3-(1-((4-((Dimethylamino)methyl)phenyl)sulfonyl)-1H-indol-5-yl)-N-hydroxy Acrylamide] | 4.87 | 39.9 ± 2.1 | 0.1 ± 0.8 | 39.6 ± 5.5 | 9.2 ± 3.4 | 60.1 ± 1.7 | 0.38 | 1.87 | 3.49 | 7.9 ± 7.5 | 6.9 ± 8.7 | 8.6 ± 1.3 | 20.9 ± 0.9 | 22.8 ± 1.0% | > 20 | > 50 | 31.1 | toxic | toxic | toxic | percentage of T. cruzi growth inhibition ([11]; 10 μM, toxic = L929 death): toxic; percentage of T. cruzi growth inhibition ([11]; 20 μM, toxic = L929 death): toxic; inhibition at 1.25 µM [11, 14]: 0%; inhibition at 2.5 µM [11, 15]: 0%; inhibition at 5 µM [11, 15]: 3%; EC50, growth of T. cruzi amastigotes and trypomastigotes [11]: inactive; IC50 [12]: 2.07 µM; IC50 [13]: 2.87 µM
2 | O=C(/C=C/c1ccc(CSc2nc(Cl)cc(-c3ccccc3)n2)cc1)NO [Compound 2, 3-(4-(((4-Chloro-6-phenylpyrimidin-2-yl)thio)methyl)phenyl)-N-hydroxy Acrylamide] | 2.31 | 16.4 ± 18.6 | 7.8 ± 1.1 | 60.2 ± 1.4 | 11.3 ± 1.7 | 83.3 ± 1.8 | 0.53 | 2.22 | 4.11 | 1.1 ± 2 | 2.5 ± 1.4 | 74.8 ± 2.5 | 39.7 ± 0.9 | 70% and 67.31 ± 2.9% | 12.9 | > 50 | > 50 | toxic | toxic | toxic | inhibition at 1.25 µM [11, 14]: 0%; inhibition at 2.5 µM [11, 15]: 0%; inhibition at 5 µM [11, 15]: 0%; inhibition at 10 µM ([11]; Trypanosoma cruzi, 10 μM, toxic = L929 death, read-out: percentage of T. cruzi growth inhibition): 0%; inhibition at 20 µM ([11]; Trypanosoma cruzi, 20 μM, toxic = L929 death, read-out: percentage of T. cruzi growth inhibition): 3%; EC50, growth of T. cruzi amastigotes and trypomastigotes [11]: inactive; IC50 [12]: 1.68 µM; IC50 [13]: 2.8 µM

— article PMC9274761, “Effects of Structurally Different HDAC Inhibitors against Trypanosoma cruzi, Leishmania, and Schistosoma mansoni” (ACS Infectious Diseases, 2022)
